Experiments:
Assay in all cases: Selectivity panel (Eurofins, CEREP)
Assay type in all cases: binding
Histamine H3 = conditions: 10 μM AX-024, single point; human receptor; radioactive antagonist ligand
Experimental: (§1) AX-024 was submitted to a selectivity panel comprising 50 recurring off-targets, including G protein–coupled receptors, channels, transporters, and metabolic enzymes (Eurofins, CEREP).
(§2) Supplemental Table 1: SPR peptide titrations
(§3) Single point measurements at 10 μM for 50 targets in a selectivity panel.
(§4) human receptors, except for the Ca2+ channel, which is from rat. A radioactive antagonist ligand was used
(§5) for the detection. The tests were conducted by Euro fins (https://www.eurofinsdiscoveryservices.com ).

5-HT2B = conditions: 10 μM AX-024, single point; human receptor; radioactive antagonist ligand
Experimental: as §1, §2, §3, §4, §5

Muscarinic M1 = conditions: 10 μM AX-024, single point; human receptor; radioactive antagonist ligand
Experimental: as §1, §2, §3, §4, §5

α 1A adrenoreceptor = conditions: 10 μM AX-024, single point; human receptor; radioactive antagonist ligand
Experimental: as §1, §2, §3, §4, §5

[1] = test system: Ca2+ channel (CaV1.2) (L, diltiazem site); conditions: probe radioactive antagonist ligand, 10 μM AX-024, single point, rat Ca2+ channel
Experimental: as §1, §2, §3, §4, §5

Dopamine D1 = conditions: 10 μM AX-024, single point; human receptor; radioactive antagonist ligand
Experimental: as §1, §2, §3, §4, §5

Muscarinic M2 = conditions: 10 μM AX-024, single point; human receptor; radioactive antagonist ligand
Experimental: as §1, §2, §3, §4, §5

For `COc1ccc2c(c1)C(c1ccc(F)cc1)=C(CN1CCCC1)CO2.Cl` [AX-024, 1-((4-(4-fluorophenyl)-6-methoxy-2H-chromen-3-yl)methyl)pyrrolidine hydrochloride], the “% inhibition” value (Histamine H3) was 95.1%, the “% inhibition” value (5-HT2B) was 80.1% and the “% inhibition” value (Muscarinic M1) was 95.0%. The “% inhibition” value (α 1A adrenoreceptor) was 79.3%, the inhibition at 10 μM [1] was 66.3% and the “% inhibition” value (Dopamine D1) was 85.3%. The “% inhibition” value (Muscarinic M2) was 81.3%.

Source: publication PMC7278359, “Small molecule AX-024 reduces T cell proliferation independently of CD3ϵ/Nck1 interaction, which is governed by a domain swap in the Nck1-SH3.1 domain” (The Journal of Biological Chemistry, 2020)
